# From publication PMC11882969 (Nature Communications, 2025)
# Several values for one entry are separate records, joined by “and”; a condition that tells them apart may be missing. Equal values may be shown once.
# Assays:
# Type in all cases: cell-based
# hCB2 [1] = target: T1, hCB2 (Homo sapiens, UniProt P34972); test: Tango β-arrestin-2 recruitment, HTLA cells, CB2R; design: expressed in transfected cells; host or cells: HEK293 cells stably expressing human CB2R (Laboratory of Ken Mackie); conditions: hCB2
# Method: The Tango β-arrestin-2 recruitment assays were performed as described[83]. In brief, HTLA cells (a gift from the laboratory of R. Axel) were transiently transfected with human CB1R or CB2R Tango DNA construct overnight in DMEM supplemented with 10 % FBS, 100 µg ml−1 streptomycin and 100 U ml−1 penicillin. The transfected cells were then plated into poly-L-lysine-coated 384-well white clear-bottom cell culture plates in DMEM containing 1% dialysed FBS at a density of 10,000–15,000 cells per well. After incubation for 6 h, the plates were added with drug solutions prepared in DMEM containing 1% dialysed FBS for overnight incubation. On the day of assay, medium and drug solutions were removed and 20 µl per well of BrightGlo reagent (Promega) was added. The plates were further incubated for 20 min at room temperature and counted using the Wallac TriLux Microbeta counter (PerkinElmer). The results were analysed using GraphPad Prism 9. Each experiment was performed in triplicate and functional IC50 values were determined from the mean of three independent experiments.
# hCB1 = hCB1 (Homo sapiens, UniProt P21554); test: Tango β-arrestin-2 recruitment, HTLA cells, CB1R; design: expressed in transfected cells; host or cells: HTLA cells (gift of R. Axel), transient transfection
# hCB2 [2] = target: T1, hCB2; test: TRUPATH BRET2 GoA dissociation, HEK293T; design: expressed in transfected cells; host or cells: HEK293T cells (ATCC: CRL-3216), transient co-transfection; conditions: for functional response, concentration-response point (FigS7e, normalized): Log[drug], replicate columns
# Chain of hCB1 (P21554 whole entry): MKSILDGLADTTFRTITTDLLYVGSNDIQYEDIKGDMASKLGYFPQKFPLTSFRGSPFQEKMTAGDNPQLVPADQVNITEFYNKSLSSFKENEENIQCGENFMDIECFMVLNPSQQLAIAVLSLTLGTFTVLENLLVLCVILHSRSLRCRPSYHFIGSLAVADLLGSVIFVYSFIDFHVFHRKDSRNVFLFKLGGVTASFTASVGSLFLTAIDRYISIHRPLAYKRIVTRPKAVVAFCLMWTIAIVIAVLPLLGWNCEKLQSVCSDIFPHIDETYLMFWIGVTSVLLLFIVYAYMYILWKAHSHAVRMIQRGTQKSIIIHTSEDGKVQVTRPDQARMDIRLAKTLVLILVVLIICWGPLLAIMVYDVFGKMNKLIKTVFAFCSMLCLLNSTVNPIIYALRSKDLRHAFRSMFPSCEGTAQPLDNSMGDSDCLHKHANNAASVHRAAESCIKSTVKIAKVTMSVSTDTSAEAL
# T1 sequence (P34972 whole entry): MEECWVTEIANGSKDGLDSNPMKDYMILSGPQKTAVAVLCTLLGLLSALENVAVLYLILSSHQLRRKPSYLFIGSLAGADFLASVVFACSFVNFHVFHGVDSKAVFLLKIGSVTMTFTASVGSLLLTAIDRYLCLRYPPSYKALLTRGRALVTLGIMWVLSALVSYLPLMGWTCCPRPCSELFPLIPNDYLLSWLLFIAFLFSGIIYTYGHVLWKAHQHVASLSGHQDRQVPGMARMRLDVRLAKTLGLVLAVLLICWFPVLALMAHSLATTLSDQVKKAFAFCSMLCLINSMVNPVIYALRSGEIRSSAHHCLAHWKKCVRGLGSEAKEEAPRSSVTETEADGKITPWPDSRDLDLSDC
smiles,measurement,setting,value
COC(=O)C(C)(NC(=O)c1cc(C)n(-c2cccc(C(F)(F)F)c2)n1)c1cccs1 (centres unmarked) [‘4042],Emax,"hCB2 [1]; HTLA, read-out: Tango ß-arrestin recruitment Emax",28%
same,Tango ß-arrestin recruitment pEC50,hCB2 [1],7.5 [7.2 – 7.7]
same,EC50,hCB2 [1]; read-out: Tango ß-arrestin recruitment EC50,33.9 nM
same,Emax,"hCB1; HTLA, hCB1, read-out: Tango ß-arrestin recruitment Emax",102%
same,"response, replicate values of concentration-response curve (FigS7f)","hCB1; Log[drug], M = -4.52",7.067 and -6.331 and 5.4951 and 8.221 and 8.314 and -13.0772 and 26.9747 and 17.871 and 12.4553 and 121.329 and 105.672 and 117.884
same,"response, replicate values of concentration-response curve (FigS7f)","hCB1; Log[drug], M = -5",-3.086 and 3.974 and -30.8966 and 0.657 and 12.6131 and 6.151 and 33.0168 and 23.9031 and -6.308 and 64.2077 and 47.075 and 77.367
same,"response at Log[drug], M -5 (FigS4e)","hCB1; Log[drug], M = -5, individual replicates",105.219 and 109.279 and 117.533 and 125.309 and 97.6126 and 107.099 and 99.9992 and 108.6 and 92.9311 and 106.141 and 96.6922 and 121.582
same,"response, replicate values of concentration-response curve (FigS7f)","hCB1; Log[drug], M = -5.52",-43.7244 and -3.669 and 10.2865 and 56.4831 and 26.3341 and 31.5757 and 34.4515 and 25.7521 and 21.276 and 49.6996 and 52.3788 and 22.9617
same,"response at Log[drug], M -5.52 (FigS4e)","hCB1; Log[drug], M = -5.52, individual replicates",101.394 and 114.732 and 120.488 and 108.55 and 90.8381 and 89.995 and 132.472 and 109.506 and 88.5962 and 99.4965 and 84.8551 and 98.2296
same,"response, replicate values of concentration-response curve (FigS7f)","hCB1; Log[drug], M = -6",45.905 and 18.3989 and 8.994 and 37.6798 and 48.3885 and 1.626 and 39.9683 and 51.123 and 11.4551 and 62.3486 and 38.1624 and 52.7798
same,"response at Log[drug], M -6 (FigS4e)","hCB1; Log[drug], M = -6, individual replicates",110.2 and 110.608 and 113.923 and 102.851 and 70.7652 and 82.3944 and 91.1468 and 90.7286 and 85.6996 and 85.6798 and 84.3272 and 95.3395
same,"response, replicate values of concentration-response curve (FigS7f)","hCB1; Log[drug], M = -6.52",48.7063 and 31.7717 and 10.7428 and 2.793 and 31.788 and 27.608 and 19.4978 and 35.1184 and 41.787 and 72.0632 and 23.3444 and 56.7531
same,"response at Log[drug], M -6.52 (FigS4e)","hCB1; Log[drug], M = -6.52, individual replicates",101.401 and 93.7884 and 111.126 and 102.386 and 76.6593 and 76.4337 and 80.9673 and 77.6716 and 90.47 and 82.2224 and 76.8121 and 78.3428
same,"response, replicate values of concentration-response curve (FigS7f)","hCB1; Log[drug], M = -7",45.8923 and 39.1109 and -32.4811 and 3.271 and 1.931 and -6.456 and 21.6196 and 13.8396 and 19.3159 and 108.005 and 18.4598 and 4.043
same,"response at Log[drug], M -7 (FigS4e)","hCB1; Log[drug], M = -7, individual replicates",101.996 and 90.2881 and 92.9617 and 98.4638 and 67.7319 and 66.2817 and 76.3076 and 71.3692 and 69.3631 and 70.7817 and 73.5528 and 86.8411
same,"response, replicate values of concentration-response curve (FigS7f)","hCB1; Log[drug], M = -7.52",6.205 and 16.8525 and 13.7723 and 78.1261 and 25.2327 and 15.4263 and 3.028 and 19.2351 and -2.458 and 66.2308 and 22.6883 and 80.2832
same,"response at Log[drug], M -7.52 (FigS4e)","hCB1; Log[drug], M = -7.52, individual replicates",85.8169 and 81.0399 and 77.0438 and 77.8353 and 74.3661 and 62.598 and 69.4576 and 65.014 and 61.4855 and 54.8485 and 65.2396 and 54.8221
same,"response at Log[drug], M -8 (FigS4e)","hCB1; Log[drug], M = -8, individual replicates",64.9332 and 70.1108 and 76.4142 and 63.9273 and 43.1923 and 49.5865 and 49.0423 and 55.5064 and 60.3508 and 56.2009 and 53.2123 and 59.8164
same,"response at Log[drug], M -8.52 (FigS4e)","hCB1; Log[drug], M = -8.52, individual replicates",34.3417 and 29.1931 and 35.2401 and 27.4328 and 27.4461 and 34.6615 and 20.0846 and 24.5419 and 29.6463 and 23.9316 and 26.0874 and 20.4241
same,"response at Log[drug], M -9 (FigS4e)","hCB1; Log[drug], M = -9, individual replicates",11.2308 and 14.9426 and 16.0188 and 14.8879 and 7.81 and 6.201 and 6.046 and 5.165 and 11.416 and 8.011 and 9.8505 and 11.4417
same,"response, replicate values of concentration-response curve (FigS7f)","hCB1; Log[drug], M = -9.52",-8.017 and 13.4427 and 7.219 and 1.3736
same,"response at Log[drug], M -9.52 (FigS4e)","hCB1; Log[drug], M = -9.52, individual replicates",4.318 and 6.954 and 4.569 and 9.019 and 2.48 and 0.9701 and 1.146 and -0.2947 and 2.2712 and 3.563 and 2.22 and 2.613
same,"response, replicate values of concentration-response curve (FigS7f)","hCB1; Log[drug], M = -10",-5.634 and 19.8566 and -6.166 and -19.951 and 12.6927 and 1.918 and 26.5806 and 27.9648 and -15.2597 and 16.5278 and -42.7439 and -28.9284
same,"response at Log[drug], M -10 (FigS4e)","hCB1; Log[drug], M = -10, individual replicates",4.678 and 4.596 and 5.116 and 5.805 and 0.4668 and 1.099 and -0.9271 and 0.03226 and 4.179 and 1.0137 and 3.024 and 3.033
same,"response at Log[drug], M -10.52 (FigS4e)","hCB1; Log[drug], M = -10.52, individual replicates",3.333 and 5.039 and 5.463 and 7.136 and 2.136 and 1.073 and 1.405 and 1.689 and 0.06416 and 3.135 and 1.262 and 0.6116
same,"response at Log[drug], M -11 (FigS4e)","hCB1; Log[drug], M = -11, individual replicates",2.02 and 1.728 and 3.648 and 1.714 and 2.136 and 0.5313 and 2.282 and 1.392 and 2.442 and 2.186 and 2.656 and 2.784
same,"response at Log[drug], M -11.52 (FigS4e)","hCB1; Log[drug], M = -11.52, individual replicates",0.1596 and 0.8162 and 2.015 and 2.59 and 0.7808 and -0.157 and 2.17 and 1.37 and 0.3122 and 1.493 and -1.27 and 0.3892
same,"response at Log[drug], M -12 (FigS4e)","hCB1; Log[drug], M = -12, individual replicates",-1.281 and 1.1992 and 0.1003 and -0.01824 and -0.4194 and -1.323 and 0.4797 and 1.263 and -0.586 and -0.201 and 1.578 and -0.7913
same,Tango ß-arrestin recruitment pEC50,hCB1; hCB1,8.0 [7.9 – 8.1]
same,EC50,"hCB1; hCB1, read-out: Tango ß-arrestin recruitment EC50",10.7 nM
same,BRET2 + GoA pEC50,hCB2 [2],8.1 [7.4 – 8.8]
same,Emax,hCB2 [2]; HEK-293T,29%
same,"functional response, concentration-response point (FigS7e, normalized)",hCB2 [2]; M = -5.52,35.163 and 34.5195 and 37.1398 and 45.2359 and 22.1885 and 20.0253 and 22.0647 and 22.44 and 27.1274 and 29.7176 and 29.0627 and 31.2724
same,"functional response, concentration-response point (FigS7e, normalized)",hCB2 [2]; M = -6,29.7877 and 33.9492 and 29.5334 and 25.2255 and 15.8228 and 16.2963 and 15.9211 and 20.153 and 25.0506 and 24.2718 and 28.0892 and 24.4694
same,"functional response, concentration-response point (FigS7e, normalized)",hCB2 [2]; M = -6.52,26.0116 and 28.0846 and 25.607 and 31.5062 and 14.9093 and 14.0547 and 17.0527 and 13.1077 and 21.8115 and 21.8852 and 20.2922 and 24.9916
same,"functional response, concentration-response point (FigS7e, normalized)",hCB2 [2]; M = -7,24.1274 and 22.8405 and 29.7761 and 21.8695 and 14.0743 and 11.9997 and 13.5282 and 12.4358 and 19.7258 and 19.481 and 19.1064 and 19.4486
same,"functional response, concentration-response point (FigS7e, normalized)",hCB2 [2]; M = -7.52,23.5957 and 22.9137 and 20.3707 and 18.5906 and 11.4339 and 9.937 and 10.3691 and 10.8406 and 16.0355 and 14.8408 and 13.0297 and 14.2214
same,"functional response, concentration-response point (FigS7e, normalized)",hCB2 [2]; M = -8,12.8343 and 12.3797 and 11.0928 and 9.008 and 8.006 and 4.9629 and 4.745 and 4.187 and 11.3719 and 9.991 and 9.086 and 7.272
same,"functional response, concentration-response point (FigS7e, normalized)",hCB2 [2]; M = -8.52,3.796 and 2.717 and 4.595 and 4.6603 and 1.822 and 2.459 and 1.412 and 2.158 and 3.296 and 4.616 and 3.0209 and 3.939
same,"functional response, concentration-response point (FigS7e, normalized)",hCB2 [2]; M = -11.52,-0.1711 and -0.00125 and 0.5633 and 1.428
same,"functional response, concentration-response point (FigS7e, normalized)",hCB2 [2]; M = -12,0.1237 and -0.6757 and -0.301 and 0.8531 and -0.1904 and 0.4719 and -0.17 and -0.1114 and 0.2132 and -0.01243 and 0.1138 and -0.3146
